The subject of experiment [1] is ENR+CD organoids (ISC to Paneth cell differentiation). Description: Primary screen: CCh-stimulated lysozyme secretion LYZ.S, 2.5-D 384-well ENR+CD organoid differentiation. The experiment is classed as cell-based, mouse. The settings on record: primary screen. The text has this: (§1) High-throughput screening.
Experiment [2] shares this test system. Description: Primary screen: basal (non-stimulated) lysozyme secretion LYZ.NS, 2.5-D 384-well ENR+CD organoid differentiation. Format: cell-based, mouse. The settings on record: primary screen; for Z.LYZ.NS: standard z score.
Source text: as §1

For experiment [3], the system named is ENR+CD organoids. Description: Primary screen: ATP (CellTiter-Glo 3D, CTG) cell number/viability, 2.5-D 384-well ENR+CD organoids.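 On all read-outs here: compounds given at plating and again on day 3 over a 6-day differentiation from ENR+CV stem-cell-enriched precursors, ATP measured on day 6, plate median as control.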 The settings on record: primary screen; for Z.CTG: standard z score.

Counter-ions that a name gives are not always drawn.

With `c1ccc(CNc2nc(NCc3ccccc3)c3ccccc3n2)cc1` [DBeQ], the Dose.FC.LYZ.S in experiment [1] (dose 0.08 uM) was 0.045 log2 fold change; in experiment [1] (dose 0.40 uM), 0.210 log2 fold change; in experiment [1] (dose 2.00 uM), −0.103 log2 fold change; in experiment [1] (dose 10.00 uM), −0.423 log2 fold change. For the same compound, the Dose.FC.LYZ.NS in experiment [2] (dose 0.08 uM) is on record as 0.097 log2 fold change; in experiment [2] (dose 0.40 uM), 0.064 log2 fold change; in experiment [2] (dose 2.00 uM), −0.048 log2 fold change; in experiment [2] (dose 10.00 uM), −0.296 log2 fold change. Further, the Z.LYZ.NS in experiment [2] (dose 0.08 uM) is 0.844; in experiment [2] (dose 0.40 uM), 0.558; in experiment [2] (dose 2.00 uM), −0.414; in experiment [2] (dose 10.00 uM) it was −2.577. Also, the Dose.FC.CTG is reported as 0.119 log2 fold change in experiment [3] (dose 0.08 uM), −0.013 log2 fold change in experiment [3] (dose 0.40 uM), 0.004 log2 fold change in experiment [3] (dose 2.00 uM) and −1.133 log2 fold change in experiment [3] (dose 10.00 uM). In addition, the Z.CTG in experiment [3] (dose 0.08 uM) is listed as 0.285; in experiment [3] (dose 0.40 uM), −0.031; in experiment [3] (dose 2.00 uM), 0.010; in experiment [3] (dose 10.00 uM), −2.706.

For the compound `CNC(=O)c1cc(Oc2ccc(NC(=O)Nc3cc(C(C)(C)C)nn3-c3ccc4ncccc4c3)c(F)c2)ccn1` [DCC-2036 (Rebastinib)], the Dose.FC.LYZ.S was 0.358 log2 fold change in experiment [1] (dose 0.08 uM), 0.186 log2 fold change in experiment [1] (dose 0.40 uM), 0.054 log2 fold change in experiment [1] (dose 2.00 uM) and −0.244 log2 fold change in experiment [1] (dose 10.00 uM). The Dose.FC.LYZ.NS in experiment [2] (dose 0.08 uM) is reported as 0.259 log2 fold change; in experiment [2] (dose 0.40 uM), 0.128 log2 fold change; in experiment [2] (dose 2.00 uM), 0.073 log2 fold change; in experiment [2] (dose 10.00 uM) it was −0.209 log2 fold change. Further, the Z.LYZ.NS in experiment [2] (dose 0.08 uM) is 2.256; in experiment [2] (dose 0.40 uM), 1.116; in experiment [2] (dose 2.00 uM), 0.637; in experiment [2] (dose 10.00 uM), −1.823. Besides, the Dose.FC.CTG in experiment [3] (dose 0.08 uM) is recorded as 0.216 log2 fold change; in experiment [3] (dose 0.40 uM) it was 0.218 log2 fold change; in experiment [3] (dose 2.00 uM), −0.038 log2 fold change; in experiment [3] (dose 10.00 uM), −0.322 log2 fold change. Moreover, the Z.CTG is reported as 0.516 in experiment [3] (dose 0.08 uM), 0.520 in experiment [3] (dose 0.40 uM), −0.091 in experiment [3] (dose 2.00 uM) and −0.769 in experiment [3] (dose 10.00 uM).

In the case of `CC(C)Oc1ccc(-c2cnc3c(-c4ccnc5ccccc45)cnn3c2)cc1` [DMH1], the Dose.FC.LYZ.S is 0.078 log2 fold change in experiment [1] (dose 0.08 uM), 0.054 log2 fold change in experiment [1] (dose 0.40 uM), 0.035 log2 fold change in experiment [1] (dose 2.00 uM) and −0.092 log2 fold change in experiment [1] (dose 10.00 uM). Moreover, the Dose.FC.LYZ.NS is 0.018 log2 fold change in experiment [2] (dose 0.08 uM), 0.026 log2 fold change in experiment [2] (dose 0.40 uM), 0.014 log2 fold change in experiment [2] (dose 2.00 uM) and −0.075 log2 fold change in experiment [2] (dose 10.00 uM). Moreover, the Z.LYZ.NS in experiment [2] (dose 0.08 uM) is on record as 0.155; in experiment [2] (dose 0.40 uM) it was 0.231; in experiment [2] (dose 2.00 uM) it was 0.124; in experiment [2] (dose 10.00 uM), −0.657. The Dose.FC.CTG in experiment [3] (dose 0.08 uM) was −0.031 log2 fold change; in experiment [3] (dose 0.40 uM), −0.079 log2 fold change; in experiment [3] (dose 2.00 uM), −0.002 log2 fold change; in experiment [3] (dose 10.00 uM) it was −0.001 log2 fold change. Further, the Z.CTG was −0.075 in experiment [3] (dose 0.08 uM), −0.188 in experiment [3] (dose 0.40 uM), −0.004 in experiment [3] (dose 2.00 uM) and −0.003 in experiment [3] (dose 10.00 uM).

Take `Cc1ccc2c(=O)c3cccc(CC(=O)O)c3oc2c1C` [DMXAA (Vadimezan)]: the Dose.FC.LYZ.S in experiment [1] (dose 0.08 uM) is reported as −0.091 log2 fold change; in experiment [1] (dose 0.40 uM), −0.009 log2 fold change; in experiment [1] (dose 2.00 uM) it was −0.094 log2 fold change; in experiment [1] (dose 10.00 uM), −0.118 log2 fold change. Further, the Dose.FC.LYZ.NS in experiment [2] (dose 0.08 uM) is given as −0.007 log2 fold change; in experiment [2] (dose 0.40 uM), −0.036 log2 fold change; in experiment [2] (dose 2.00 uM), −0.038 log2 fold change; in experiment [2] (dose 10.00 uM), −0.031 log2 fold change. Also, the Z.LYZ.NS was −0.065 in experiment [2] (dose 0.08 uM), −0.317 in experiment [2] (dose 0.40 uM), −0.334 in experiment [2] (dose 2.00 uM) and −0.271 in experiment [2] (dose 10.00 uM). Besides, the Dose.FC.CTG is on record as −0.568 log2 fold change in experiment [3] (dose 0.08 uM), −0.629 log2 fold change in experiment [3] (dose 0.40 uM), −0.477 log2 fold change in experiment [3] (dose 2.00 uM) and −0.230 log2 fold change in experiment [3] (dose 10.00 uM). Also, the Z.CTG is recorded as −1.357 in experiment [3] (dose 0.08 uM), −1.502 in experiment [3] (dose 0.40 uM), −1.139 in experiment [3] (dose 2.00 uM) and −0.550 in experiment [3] (dose 10.00 uM).

On to `CC(C)(C)c1nc(-c2cccc(NS(=O)(=O)c3c(F)cccc3F)c2F)c(-c2ccnc(N)n2)s1` [Dabrafenib (GSK2118436)], for which the Dose.FC.LYZ.S in experiment [1] (dose 0.08 uM) is reported as 0.236 log2 fold change; in experiment [1] (dose 0.40 uM), 0.103 log2 fold change; in experiment [1] (dose 2.00 uM), 0.019 log2 fold change; in experiment [1] (dose 10.00 uM), −0.384 log2 fold change. Moreover, the Dose.FC.LYZ.NS in experiment [2] (dose 0.08 uM) is on record as 0.095 log2 fold change; in experiment [2] (dose 0.40 uM) it was 0.049 log2 fold change; in experiment [2] (dose 2.00 uM), −0.001 log2 fold change; in experiment [2] (dose 10.00 uM), −0.250 log2 fold change. The Z.LYZ.NS in experiment [2] (dose 0.08 uM) is given as 0.830; in experiment [2] (dose 0.40 uM), 0.427; in experiment [2] (dose 2.00 uM), −0.006; in experiment [2] (dose 10.00 uM) it was −2.178. The Dose.FC.CTG in experiment [3] (dose 0.08 uM) was −0.134 log2 fold change; in experiment [3] (dose 0.40 uM), 0.011 log2 fold change; in experiment [3] (dose 2.00 uM), −0.279 log2 fold change; in experiment [3] (dose 10.00 uM) it was −0.800 log2 fold change. The Z.CTG in experiment [3] (dose 0.08 uM) was −0.320; in experiment [3] (dose 0.40 uM), 0.026; in experiment [3] (dose 2.00 uM), −0.667; in experiment [3] (dose 10.00 uM) it was −1.911.

In the case of `CCC(CC)CC1(C(=O)Nc2ccccc2SC(=O)C(C)C)CCCCC1` [Dalcetrapib (JTT-705, RO4607381)], the Dose.FC.LYZ.S in experiment [1] (dose 0.08 uM) is listed as 0.049 log2 fold change; in experiment [1] (dose 0.40 uM), 0.104 log2 fold change; in experiment [1] (dose 2.00 uM), 0.098 log2 fold change; in experiment [1] (dose 10.00 uM) it was −0.113 log2 fold change. Besides, the Dose.FC.LYZ.NS is recorded as 0.055 log2 fold change in experiment [2] (dose 0.08 uM), −0.037 log2 fold change in experiment [2] (dose 0.40 uM), −0.034 log2 fold change in experiment [2] (dose 2.00 uM) and −0.074 log2 fold change in experiment [2] (dose 10.00 uM). The Z.LYZ.NS was 0.475 in experiment [2] (dose 0.08 uM), −0.324 in experiment [2] (dose 0.40 uM), −0.296 in experiment [2] (dose 2.00 uM) and −0.643 in experiment [2] (dose 10.00 uM). Also, the Dose.FC.CTG is given as 0.112 log2 fold change in experiment [3] (dose 0.08 uM), −0.006 log2 fold change in experiment [3] (dose 0.40 uM), 0.079 log2 fold change in experiment [3] (dose 2.00 uM) and 0.136 log2 fold change in experiment [3] (dose 10.00 uM). For the same compound, the Z.CTG in experiment [3] (dose 0.08 uM) is listed as 0.268; in experiment [3] (dose 0.40 uM), −0.014; in experiment [3] (dose 2.00 uM), 0.188; in experiment [3] (dose 10.00 uM), 0.324.

With `COc1cccc2c1C(=O)c1c(O)c3c(c(O)c1C2=O)C[C@@](O)(C(C)=O)C[C@@H]3O[C@H]1C[C@H](N)[C@H](O)[C@H](C)O1` [Daunorubicin HCl], the Dose.FC.LYZ.S in experiment [1] (dose 0.08 uM) is listed as −0.096 log2 fold change; in experiment [1] (dose 0.40 uM) it was −0.329 log2 fold change; in experiment [1] (dose 2.00 uM), −0.343 log2 fold change; in experiment [1] (dose 10.00 uM), −0.374 log2 fold change. Besides, the Dose.FC.LYZ.NS in experiment [2] (dose 0.08 uM) is −0.136 log2 fold change; in experiment [2] (dose 0.40 uM), −0.241 log2 fold change; in experiment [2] (dose 2.00 uM), −0.262 log2 fold change; in experiment [2] (dose 10.00 uM), −0.260 log2 fold change. Moreover, the Z.LYZ.NS is recorded as −1.188 in experiment [2] (dose 0.08 uM), −2.099 in experiment [2] (dose 0.40 uM), −2.280 in experiment [2] (dose 2.00 uM) and −2.262 in experiment [2] (dose 10.00 uM). Also, the Dose.FC.CTG in experiment [3] (dose 0.08 uM) is on record as −0.467 log2 fold change; in experiment [3] (dose 0.40 uM), −0.601 log2 fold change; in experiment [3] (dose 2.00 uM), −0.817 log2 fold change; in experiment [3] (dose 10.00 uM), −1.100 log2 fold change.

As for `COc1cc2nc(N3CCN(C(=O)C4COc5ccccc5O4)CC3)nc(N)c2cc1OC` (centres unmarked) [Doxazosin Mesylate], the Dose.FC.LYZ.S is given as 0.093 log2 fold change in experiment [1] (dose 0.08 uM), 0.084 log2 fold change in experiment [1] (dose 0.40 uM), 0.030 log2 fold change in experiment [1] (dose 2.00 uM) and 0.015 log2 fold change in experiment [1] (dose 10.00 uM). In addition, the Dose.FC.LYZ.NS worked out at 0.073 log2 fold change in experiment [2] (dose 0.08 uM), 0.044 log2 fold change in experiment [2] (dose 0.40 uM), 0.047 log2 fold change in experiment [2] (dose 2.00 uM) and 0.039 log2 fold change in experiment [2] (dose 10.00 uM). For the same compound, the Z.LYZ.NS in experiment [2] (dose 0.08 uM) came out at 0.633; in experiment [2] (dose 0.40 uM) it was 0.387; in experiment [2] (dose 2.00 uM) it was 0.413; in experiment [2] (dose 10.00 uM) it was 0.340. Besides, the Dose.FC.CTG in experiment [3] (dose 0.08 uM) is listed as 0.072 log2 fold change; in experiment [3] (dose 0.40 uM), −0.015 log2 fold change; in experiment [3] (dose 2.00 uM), 0.146 log2 fold change; in experiment [3] (dose 10.00 uM), 0.075 log2 fold change.

The record behind these values is patent publication US20220323406A1, “METHODS AND COMPOSITIONS FOR DIFFERENTIATING STEM CELLS” (Massachusetts Institute of Technology, priority 2019, published 2022).
